The source of these data is PubChem BioAssay (NCI).

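Assay format: 96-well plates, 48-hour exposure. TGI is the concentration that stops growth completely.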

Some test systems named below: COLO 205 colon; HCT-15 colon; A498 renal; LOX IMVI melanoma; K-562 leukemia; OVCAR-4 ovarian; NCI-H226 lung; NCI-H522 lung; 786-0 renal; EKVX NSCLC; HS 578T breast.
What all share (assay): NCI tumour cell line growth inhibition, 48 h

As to `COCN1C(=O)[C@@H]2CCCN2C(=O)c2ccc(N)cc21`, the TGI in the assay on COLO 205 colon, with HCT-15 colon, with A498 renal, in the assay with LOX IMVI melanoma, in the assay with K-562 leukemia and in the assay with OVCAR-4 ovarian was above 100 µM throughout. Further, the TGI in the assay with NCI-H226 lung, in the assay on NCI-H522 lung, with 786-0 renal, in the assay with EKVX NSCLC and in the assay on HS 578T breast was above 100 µM throughout.

Turning to `COC(=O)[C@@H]1c2c(oc3cc(CO)cc(O)c3c2=O)C=C[C@H]1O`, the TGI in the assay with COLO 205 colon was 29 µM; with HCT-15 colon, 9.48 µM; in the assay with A498 renal it was 20 µM; with LOX IMVI melanoma, 12.4 µM; with K-562 leukemia, above 100 µM; with OVCAR-4 ovarian it was 12 µM. Moreover, the TGI in the assay on NCI-H226 lung is 51.5 µM; with NCI-H522 lung, 3.64 µM; in the assay on 786-0 renal, 12 µM; in the assay with EKVX NSCLC, 27.4 µM; in the assay with HS 578T breast it was 55.8 µM.

Consider `Nc1nc(N)c2nc(CN(C=O)c3ccc(C(=O)O)cc3)cnc2n1`, for which the TGI with COLO 205 colon is above 100 µM; in the assay on HCT-15 colon it was above 100 µM; in the assay on A498 renal it was above 79.9 µM; in the assay with LOX IMVI melanoma it was above 100 µM; with K-562 leukemia, above 100 µM; with OVCAR-4 ovarian, above 100 µM. Moreover, the TGI in the assay on NCI-H226 lung, in the assay with NCI-H522 lung, in the assay on 786-0 renal, in the assay with EKVX NSCLC and in the assay on HS 578T breast was above 100 µM in each case.

In the case of `O=c1cc(NNc2cccc3ccccc23)[nH]c(=O)[nH]1`, the TGI is 31.3 µM in the assay with COLO 205 colon; 24.8 µM in the assay on HCT-15 colon; 35.7 µM in the assay with A498 renal; 26.7 µM in the assay with LOX IMVI melanoma; above 100 µM in the assay with K-562 leukemia; 31.2 µM with OVCAR-4 ovarian. Moreover, the TGI in the assay on NCI-H226 lung was 27.9 µM; with NCI-H522 lung, 28.7 µM; in the assay with 786-0 renal, 18.6 µM; in the assay with EKVX NSCLC, 27.7 µM; in the assay on HS 578T breast, 68.7 µM.

For `O/N=C\c1c2c(cc3c1CCC3)CCC2`, the TGI in the assay on COLO 205 colon, with HCT-15 colon, in the assay with A498 renal, in the assay with LOX IMVI melanoma, in the assay with K-562 leukemia and with OVCAR-4 ovarian was above 100 µM throughout. Also, the TGI in the assay with NCI-H226 lung, in the assay with NCI-H522 lung, with 786-0 renal, in the assay on EKVX NSCLC and with HS 578T breast was above 100 µM throughout.

As for `CC(=O)O[C@H]1[C@@H](N2CCOCC2)C[C@H]2[C@@H]3CC=C4C[C@@H](N5CCCC5)CC[C@]4(C)[C@H]3CC[C@@]21C`, the TGI with COLO 205 colon, with HCT-15 colon, with A498 renal, in the assay on LOX IMVI melanoma, in the assay on K-562 leukemia and in the assay with OVCAR-4 ovarian was above 100 µM throughout. For the same compound, the TGI with NCI-H226 lung, in the assay on NCI-H522 lung, in the assay on 786-0 renal, with EKVX NSCLC and in the assay with HS 578T breast was above 100 µM throughout.

On to `Cc1c(C#N)c2nnn(-c3cccc(Cl)c3)c(=O)n2c1-c1ccccc1`, for which the TGI is 2.35 µM in the assay on COLO 205 colon; above 100 µM in the assay on HCT-15 colon; 13 µM with A498 renal; above 100 µM with LOX IMVI melanoma; 4.03 µM in the assay on K-562 leukemia; above 100 µM in the assay with OVCAR-4 ovarian. Further, the TGI in the assay with NCI-H226 lung was 12.6 µM; in the assay with NCI-H522 lung, 8.59 µM; with 786-0 renal it was above 100 µM; in the assay on EKVX NSCLC, above 100 µM; with HS 578T breast, above 100 µM.

With `c1ccc(C(Oc2noc3ccccc23)c2ccccc2)cc1`, the TGI in the assay on COLO 205 colon is 37 µM; in the assay with HCT-15 colon it was above 100 µM; in the assay with A498 renal, above 100 µM; in the assay with LOX IMVI melanoma it was above 100 µM; in the assay with K-562 leukemia, above 100 µM; in the assay on OVCAR-4 ovarian, above 100 µM. Further, the TGI in the assay with NCI-H226 lung, with NCI-H522 lung, in the assay on 786-0 renal, in the assay on EKVX NSCLC and in the assay with HS 578T breast was above 100 µM in each case.

`CN(C)S(=O)(=O)c1ccc2[nH]c(O)c(C3=Nc4ccccc4C3=O)c2c1`: the TGI with COLO 205 colon was above 100 µM; in the assay with HCT-15 colon, above 100 µM; in the assay with A498 renal, 97.4 µM; in the assay with LOX IMVI melanoma it was above 100 µM; in the assay with K-562 leukemia it was above 100 µM; in the assay on OVCAR-4 ovarian, above 100 µM. For the same compound, the TGI in the assay on NCI-H226 lung was 81.3 µM; with NCI-H522 lung, above 100 µM; in the assay with 786-0 renal, 50.3 µM; with EKVX NSCLC, above 100 µM; in the assay with HS 578T breast, 76.9 µM.

As to `Cc1ccc(C2=CC(=O)/C(=C\C(=O)c3ccc(Br)cc3)O2)c(C)c1`, the TGI was 14.3 µM with COLO 205 colon; 36.9 µM in the assay on HCT-15 colon; 39.4 µM with A498 renal; above 21.1 µM in the assay on LOX IMVI melanoma; 16.4 µM in the assay with K-562 leukemia; 23.9 µM with OVCAR-4 ovarian. The TGI with NCI-H226 lung is 30.8 µM; with NCI-H522 lung it was 3.38 µM; in the assay on 786-0 renal, 16 µM; with EKVX NSCLC, above 67.7 µM; in the assay with HS 578T breast, 61.8 µM.

Take `Cc1nn2c(=O)c([N+](=O)[O-])c(/C=C/c3ccc(F)cc3)nc2s1`: the TGI in the assay on COLO 205 colon is 16.7 µM; with HCT-15 colon, 16.5 µM; in the assay on A498 renal it was 35.6 µM; in the assay with LOX IMVI melanoma, 9.19 µM; with K-562 leukemia, above 31.6 µM; with OVCAR-4 ovarian, 19.5 µM. In addition, the TGI was found to be 19 µM with NCI-H226 lung; 18 µM in the assay with NCI-H522 lung; 20.9 µM in the assay with 786-0 renal; 22.5 µM in the assay on EKVX NSCLC; 28.6 µM with HS 578T breast.

Turning to `O=c1c(-c2nc3ccccc3c3ccccc3c2=O)nc2ccccc2c2ccccc12`, the TGI with COLO 205 colon, in the assay on HCT-15 colon, with A498 renal, with LOX IMVI melanoma, in the assay on K-562 leukemia and with OVCAR-4 ovarian was above 100 µM in each case. Further, the TGI in the assay on NCI-H226 lung, in the assay on NCI-H522 lung, in the assay with 786-0 renal, in the assay with EKVX NSCLC and with HS 578T breast was above 100 µM each time.

With `NCCCN(CCCCN(CCCN)CCCc1ccccc1)CCCc1ccccc1`, the TGI amounted to 3.18 µM in the assay with COLO 205 colon; 4.24 µM in the assay with HCT-15 colon; 32.8 µM with A498 renal; 6.38 µM in the assay with LOX IMVI melanoma; 3.57 µM in the assay with K-562 leukemia; 17.1 µM in the assay on OVCAR-4 ovarian. For the same compound, the TGI was 38.8 µM with NCI-H226 lung; 7.17 µM in the assay with NCI-H522 lung; 2.91 µM with 786-0 renal; 12.6 µM in the assay with EKVX NSCLC; 4.66 µM in the assay on HS 578T breast.

For the compound `CC1=NN(c2nc(N)nc(CO)n2)C(C)(C)C1`, the TGI with COLO 205 colon, in the assay with HCT-15 colon, in the assay with A498 renal, with LOX IMVI melanoma, in the assay on K-562 leukemia and in the assay on OVCAR-4 ovarian was above 100 µM each time. The TGI with NCI-H226 lung, with NCI-H522 lung, in the assay on 786-0 renal, in the assay on EKVX NSCLC and in the assay with HS 578T breast was above 100 µM in each case.

Take `CC(=O)OCC1OC(OCCCOP(=O)(OCCC#N)OCC2OC(n3cnc4c(N)ncnc43)C(OC(=O)c3ccccc3)C2OC(=O)c2ccccc2)C(OC(C)=O)C(OC(C)=O)C1OC(C)=O` (stereo not drawn): the TGI with COLO 205 colon, in the assay with HCT-15 colon, with A498 renal, in the assay on LOX IMVI melanoma, in the assay with K-562 leukemia and in the assay on OVCAR-4 ovarian was above 100 µM throughout. Moreover, the TGI in the assay on NCI-H226 lung, in the assay with NCI-H522 lung, in the assay on 786-0 renal, with EKVX NSCLC and in the assay with HS 578T breast was above 100 µM in each case.

As for `CCN(CC)c1c(C(C)(C)C)c(=O)n2ccsc2c1OC(C)=O`, the TGI is 31.8 µM in the assay on COLO 205 colon; 30.7 µM in the assay with HCT-15 colon; 33.6 µM in the assay with A498 renal; 31.4 µM with LOX IMVI melanoma; above 100 µM in the assay with K-562 leukemia; 28.9 µM in the assay with OVCAR-4 ovarian. The TGI stood at 29.2 µM in the assay on NCI-H226 lung; 27.7 µM in the assay on NCI-H522 lung; 34.1 µM in the assay on 786-0 renal; 29.3 µM in the assay on EKVX NSCLC; 42.8 µM in the assay on HS 578T breast.

Turning to `Nc1nc(Cl)c(CO)c(NCC2(CO)CCC2)n1`, the TGI in the assay with COLO 205 colon, in the assay with HCT-15 colon, in the assay on A498 renal, with LOX IMVI melanoma, with K-562 leukemia and in the assay with OVCAR-4 ovarian was above 100 µM each time. For the same compound, the TGI with NCI-H226 lung, in the assay with NCI-H522 lung, in the assay on 786-0 renal, in the assay with EKVX NSCLC and in the assay with HS 578T breast was above 100 µM in each case.

For `COc1cc(/C=C(\C)[N+](=O)[O-])cc(OC)c1`, the TGI with COLO 205 colon stood at 20.1 µM; in the assay on HCT-15 colon it was 29.9 µM; in the assay with A498 renal, 25 µM; in the assay with LOX IMVI melanoma, 11.9 µM; in the assay with K-562 leukemia, 5.52 µM; with OVCAR-4 ovarian it was 33.5 µM. The TGI was above 94.7 µM in the assay on NCI-H226 lung; 3.64 µM in the assay with NCI-H522 lung; 8.95 µM in the assay on 786-0 renal; 33.9 µM in the assay on EKVX NSCLC; 68.6 µM with HS 578T breast.
